Results taken from patent publication US20110178104A1, “Anti-Heparin Compounds” (POLYMEDIX INC., priority 2010, published 2011).
Starred links: 1 amine or outer side, 2 acyl side, 3 side chain; linkers in the order of their positions; H or OH if unused. Non-standard residues stand in square brackets, D forms with d. Residues, ends and D or L forms follow the SMILES beside them. *: point of attachment. NH(3-CONH2-4-OMe-phenyl) = COc1ccc(N*)cc1C(N)=O; 3Abz(6-OMe) = COc1ccc(N[*:1])cc1C(=O)[*:2]

Columns and labels:
fondaparinux (FONDAPX) = experiment: FXa chromogenic assay (absence of plasma), fondaparinux; conditions: fondaparinux 0.02 μg/mL, absence of plasma
[1] = test system: unfractionated heparin (UFH); experiment: aPTT clotting assay, UFH 0.2 U/mL in plasma (Example 7); assay type: biochemical; conditions: UFH 0.2 U/mL in plasma
Experimental: aPTT clotting Assay. Unfractionated heparin was mixed with plasma at a final concentration of 0.2 U/mL. […] The ACL Elite Hemostasis analyzer (Beckman Coulter™) was used to add aPTT reagent (HemosIL SynthASil) to supplemented plasma. Clotting was initiated by addition of CaCl2 and time to clot was recorded.

enoxaparin (ENOX) = experiment: FXa chromogenic assay (absence of plasma), enoxaparin; conditions: enoxaparin 0.1 μg/mL, absence of plasma

FONDAPX (FXa) EC50 (fondaparinux (FONDAPX)) | UFH (aPTT) EC50 [1] | ENOX (FXa) EC50 (enoxaparin (ENOX)) [mg/L] | SMILES
inactive | 19.76 mg/L | 23.71 | CN(C)CCNC(=O)c1cc(C(=O)N[C@H]2CC[C@H](NC(=O)c3cc(C(=O)NCCN(C)C)c(OCCCCCN)cc3OCCCCCN)CC2)c(OCCCCCN)cc1OCCCCCN [Compound 5]
3.114 mg/L | >10 mg/L | 0.9448 | COc1ccc(NC(=O)[C@H](CCCCN)NC(=O)c2cc(NC(=O)[C@H](CCCCN)NC(=O)c3cc(NC(=O)[C@H](CCCCN)NC(=O)c4cc(N)cc(C(F)(F)F)c4)ccc3OC)ccc2OC)cc1C(N)=O [Compound 125]
2.02 mg/L | >10 mg/L | 0.36 | COc1cc(OC)c(C(=O)N[C@H]2CC[C@H](NC(=O)c3cc(C(=O)NCCN(C)C)c(OCCCCCNC(=N)N)cc3OCCCCCNC(=N)N)CC2)cc1C(=O)N[C@H]1CC[C@@H](NC(=O)c2cc(C(=O)NCCN(C)C)c(OCCCCCNC(=N)N)cc2OCCCCCNC(=N)N)CC1 [Compound 104]
inactive | inactive | 45.00 | COc1c(NC(=O)[C@@H](CCCCN)NC(=O)c2cccc(NC(=O)[C@@H](CCCCN)NC(=O)c3cccc(NC(=O)[C@@H](CCCCN)NC(=O)c4cccc(NC(=O)[C@H](N)CCCCN)c4OC)c3OC)c2OC)cccc1C(N)=O [Compound 34]
0.7596 mg/L | 2.79 mg/L | 0.1581 | COc1ccc(NC(=O)[C@@H](CCCNC(=N)N)NC(=O)c2cc(NC(=O)[C@@H](CCCNC(=N)N)NC(=O)c3cc(NC(=O)[C@@H](CCCNC(=N)N)NC(=O)c4cc(NC(=O)[C@H](N)CCCNC(=N)N)ccc4OC)ccc3OC)ccc2OC)cc1C(N)=O [Compound 135]
1.03 mg/L | 1.42 mg/L | 0.16 | COc1ccc(NC(=O)[C@@H](CCCNC(=N)N)NC(=O)c2cc(NC(=O)[C@@H](CCCNC(=N)N)NC(=O)c3cc(NC(=O)[C@@H](CCCNC(=N)N)NC(=O)c4cc(NC(=O)[C@@H](C)NC(=O)CCCCNC(=N)N)ccc4OC)ccc3OC)ccc2OC)cc1C(N)=O [Compound 49]
1.94 mg/L | 2.37 mg/L | 0.18 | COc1ccc(NC(=O)[C@@H](CCCNC(=N)N)NC(=O)c2cc(NC(=O)[C@@H](CCCNC(=N)N)NC(=O)c3cc(NC(=O)[C@@H](CCCNC(=N)N)NC(=O)c4cc(NC(=O)[C@@H](CCCNC(=N)N)NC(=O)CCCCNC(=N)N)ccc4OC)ccc3OC)ccc2OC)cc1C(N)=O [Compound 38]
44.99 mg/L | 4.80 mg/L | 3.71 | COc1ccc(NC(=O)[C@@H](CCCNC(=N)N)NC(=O)c2cc(NC(=O)[C@H](C)NC(=O)[C@@H](CCCNC(=N)N)NC(=O)c3cc(NC(=O)[C@@H](CCCNC(=N)N)NC(=O)c4cc(NC(=O)[C@H](N)CCCNC(=N)N)ccc4OC)ccc3OC)ccc2OC)cc1C(N)=O [Compound 75] (H-[dR][3Abz(6-OMe)][dR][3Abz(6-OMe)][dR]A[3Abz(6-OMe)][dR]-{NH(3-CONH2-4-OMe-phenyl)})
7.996 mg/L | 2.47 mg/L | 0.3888 | COc1ccc(NC(=O)[C@H](CCCCN)NC(=O)c2cc(NC(=O)[C@H](CCCCN)NC(=O)c3cc(NC(=O)[C@H](CCCCN)NC(=O)c4ccc(NC(=O)[C@@H](N)CCCCN)cc4OC)ccc3OC)ccc2OC)cc1C(N)=O [Compound 129]
3.21 mg/L | 2.28 mg/L | 0.23 | COc1ccc(NC(=O)[C@H](CCCCN)NC(=O)c2cc(NC(=O)[C@H](CCCCN)NC(=O)c3cc(NC(=O)[C@H](CCCCN)NC(=O)c4cc(NC(=O)[C@H](CCCCN)NC(C)=O)ccc4OC)ccc3OC)ccc2OC)cc1C(N)=O [Compound 28]
1.99 mg/L | 3.09 mg/L | 0.32 | COc1ccc(NC(=O)[C@@H](Cc2c[nH]c3ccccc23)NC(=O)c2cc(NC(=O)[C@@H](CCCNC(=N)N)NC(=O)c3cc(NC(=O)[C@@H](CCCNC(=N)N)NC(=O)c4cc(NC(=O)[C@H](N)CCCNC(=N)N)ccc4OC)ccc3OC)ccc2OC)cc1C(N)=O [Compound 84]
3.85 mg/L | 1.65 mg/L | 0.16 | COc1ccc(NC(=O)[C@@H](CCCNC(=N)N)NC(=O)c2cc(NC(=O)[C@@H](CCCNC(=N)N)NC(=O)c3cc(NC(=O)[C@@H](CCCNC(=N)N)NC(=O)c4cc(NC(=O)[C@H](N)CCCNC(=N)N)ccc4OC)ccc3OC)ccc2OC)cc1C(=O)NCCCCCN [Compound 41]
10.57 mg/L | 1.50 mg/L | 0.6085 | COc1ccc(NC(=O)[C@H](CCCCN)NC(=O)c2cc(NC(=O)[C@H](CCCCN)NC(=O)c3cc(NC(=O)[C@H](CCCCN)NC(=O)c4cc(NC(=O)[C@@H](N)CCCCN)ccc4OC)ccc3OC)ccc2OC)cc1C(=O)NCCC(=O)O [Compound 108]
4.025 mg/L | 2.00 mg/L | 0.3761 | COc1ccc(NC(=O)[C@H](CCCCN)NC(=O)c2cc(NC(=O)[C@H](CCCCN)NC(=O)c3cc(NC(=O)[C@H](CCCCN)NC(=O)c4cc(NC(=O)[C@@H](N)CCCNC(N)=O)ccc4OC)ccc3OC)ccc2OC)cc1C(N)=O [Compound 137]
9.463 mg/L | 4.26 mg/L | 1.141 | COc1ccc(NC(=O)[C@H](CCCCN)NC(=O)c2cc(NC(=O)[C@H](CCCCN)NC(=O)c3cc(NC(=O)[C@H](CCCCN)NC(=O)c4cc(NC(=O)[C@@H](N)CCCCN)ccc4OC)ccc3OC)ccc2OC)cc1C(=O)N[C@@H](CCC(=O)O)C(=O)O [Compound 145]
>90 mg/L | 2.88 mg/L | 1.84 | COc1ccc(NC(=O)[C@@H](CCCN)NC(=O)c2cc(NC(=O)[C@@H](CCCN)NC(=O)c3cc(NC(=O)[C@@H](CCCN)NC(=O)c4cc(NC(=O)[C@H](N)CCCN)ccc4OC)ccc3OC)ccc2OC)cc1C(N)=O [Compound 40]
2.332 mg/L | 2.15 mg/L | 0.3298 | COc1ccc(NC(=O)[C@H](CCCCN)NC(=O)c2cc(NC(=O)[C@H](CCCCN)NC(=O)c3cc(NC(=O)[C@H](CCCNC(N)=O)NC(=O)c4cc(NC(=O)[C@@H](N)CCCCN)ccc4OC)ccc3OC)ccc2OC)cc1C(N)=O [Compound 138]
1.59 mg/L | 1.55 mg/L | 0.33 | COc1ccc(NC(=O)[C@@H](CCCNC(=N)N)NC(=O)c2cc(NC(=O)[C@@H](CCCNC(=N)N)NC(=O)c3cc(NC(=O)[C@@H](CCCNC(=N)N)NC(=O)c4cc(NC(=O)[C@H](N)CO)ccc4OC)ccc3OC)ccc2OC)cc1C(N)=O [Compound 70]
inactive | 2.33 mg/L | >15 | COc1ccc(NC(=O)[C@H](CCCCN)NC(=O)c2cc(NC(=O)[C@H](CCCCN)NC(=O)c3cc(NC(=O)[C@H](CCCCN)NC(=O)c4cccc(N(C)C(=O)[C@@H](N)CCCCN)c4)ccc3OC)ccc2OC)cc1C(N)=O [Compound 127]
4.34 mg/L | inactive | 0.35 | COc1ccc(NC(=O)[C@H](CCCCN)NC(=O)c2cc(NC(=O)[C@H](CCCCN)NC(=O)c3cc(NC(=O)[C@H](CCCNC(=N)N)NC(=O)c4cc(NC(=O)[C@@H](N)CCCCN)ccc4OC)ccc3OC)ccc2OC)cc1C(N)=O [Compound 80]
inactive | 2.84 mg/L | 1.829 | COc1ccc(NC(=O)[C@H](CCCCN)NC(=O)c2cc(NC(=O)[C@@H](N)CCCCN)ccc2OC)cc1C(=O)N[C@@H](CCCCN)C(=O)Nc1ccc(OC)c(C(=O)N[C@@H](CCCCN)C(=O)Nc2ccc(SC)c(C(N)=O)c2)c1 [Compound 134]
inactive | 29.11 mg/L | 0.57 | N=C(N)NCCCCC(=O)Nc1cc(C(F)(F)F)cc(NC(=O)c2cc(C(=O)Nc3cc(C(F)(F)F)cc(NC(=O)CCCCNC(=N)N)c3SCCN)ncn2)c1SCCN [Compound 6]
>20 mg/L | 4.94 mg/L | 1.32 | COc1ccc(NC(=O)[C@H](C)NC(=O)c2cc(NC(=O)[C@H](CCCCN)NC(=O)c3cc(NC(=O)[C@H](CCCCN)NC(=O)c4cc(NC(=O)[C@@H](N)CCCCN)ccc4OC)ccc3OC)ccc2OC)cc1C(N)=O [Compound 94]
0.8018 mg/L | 2.91 mg/L | 0.194 | COc1ccc(NC(=O)[C@@H](CCCNC(=N)N)NC(=O)c2cc(NC(=O)[C@@H](CCCNC(=N)N)NC(=O)c3cc(NC(=O)[C@@H](CCCNC(=N)N)NC(=O)c4cc(NC(=O)[C@H](N)CCCNC(=N)N)ccc4OC)ccc3OC)ccc2OC)cc1C(N)=O [Compound 136]
1.34 mg/L | 1.76 mg/L | 0.25 | COc1cc(OC)c(C(=O)N[C@H]2CC[C@H](NC(=O)c3cc(C(=O)NCCN(C)C)c(OCCCCCNC(=N)N)cc3OCCCCCNC(=N)N)CC2)cc1C(=O)NC1CCC(NC(=O)c2cc(C(=O)NCCN(C)C)c(OCCCCCNC(=N)N)cc2OCCCCCNC(=N)N)CC1 (stereo partly drawn) [Compound 3]
6.132 mg/L | 1.54 mg/L | 0.2998 | COc1ccc(C(=O)N[C@@H](CCCCN)C(=O)Nc2ccc(OC)c(C(=O)N[C@@H](CCCCN)C(=O)Nc3ccc(OC)c(C(=O)N[C@@H](CCCCN)C(=O)Nc4ccc(OC)c(C(N)=O)c4)c3)c2)cc1NC(=O)[C@@H](N)CCCCN [Compound 99]
